Reference: ChEMBL document CHEMBL5465560, “Selectivity Literature for EUbOPEN Chemogenomic Library” (2024)
pIC50: −log10 of the molar value.

What was measured:
[1] = target: Beta-2 adrenergic receptor (Homo sapiens, UniProt P07550); test: Selectivity interaction (Beta 2 adrenergic receptor assay, human recombinant ) EUB0000877a ADRB2
[2] = target: STE20/SPS1-related proline-alanine-rich protein kinase (Homo sapiens) (UniProt Q9UEW8); test: Selectivity interaction (KinomeScan (DiscoverX)) EUB0000607a STK39; conditions: at 10 µM
[3] = target: T1, Dual specificity mitogen-activated protein kinase kinase 4 (Homo sapiens) (UniProt P45985); test: Selectivity interaction (KinomeScan (DiscoverX)) EUB0000607a MAP2K4; conditions: at 10 µM
T1 sequence (whole entry): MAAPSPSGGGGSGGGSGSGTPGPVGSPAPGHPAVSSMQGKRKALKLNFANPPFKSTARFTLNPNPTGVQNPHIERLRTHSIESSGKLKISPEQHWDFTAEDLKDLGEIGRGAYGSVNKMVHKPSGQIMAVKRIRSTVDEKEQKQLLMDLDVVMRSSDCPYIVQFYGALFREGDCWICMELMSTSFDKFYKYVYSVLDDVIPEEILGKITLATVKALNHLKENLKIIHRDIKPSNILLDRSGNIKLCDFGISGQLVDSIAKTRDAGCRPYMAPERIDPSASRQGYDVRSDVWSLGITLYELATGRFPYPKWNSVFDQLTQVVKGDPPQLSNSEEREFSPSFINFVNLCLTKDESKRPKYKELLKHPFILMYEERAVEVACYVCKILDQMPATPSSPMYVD

[4] = target: STE20-like serine/threonine-protein kinase (Homo sapiens, UniProt Q9H2G2); test: Selectivity interaction (Kinase panel (Invitrogen)) EUB0000639a SLK; conditions: at 200 nM
STE20-like serine/threonine-protein kinase, sequence (Q9H2G2 whole entry, looked up): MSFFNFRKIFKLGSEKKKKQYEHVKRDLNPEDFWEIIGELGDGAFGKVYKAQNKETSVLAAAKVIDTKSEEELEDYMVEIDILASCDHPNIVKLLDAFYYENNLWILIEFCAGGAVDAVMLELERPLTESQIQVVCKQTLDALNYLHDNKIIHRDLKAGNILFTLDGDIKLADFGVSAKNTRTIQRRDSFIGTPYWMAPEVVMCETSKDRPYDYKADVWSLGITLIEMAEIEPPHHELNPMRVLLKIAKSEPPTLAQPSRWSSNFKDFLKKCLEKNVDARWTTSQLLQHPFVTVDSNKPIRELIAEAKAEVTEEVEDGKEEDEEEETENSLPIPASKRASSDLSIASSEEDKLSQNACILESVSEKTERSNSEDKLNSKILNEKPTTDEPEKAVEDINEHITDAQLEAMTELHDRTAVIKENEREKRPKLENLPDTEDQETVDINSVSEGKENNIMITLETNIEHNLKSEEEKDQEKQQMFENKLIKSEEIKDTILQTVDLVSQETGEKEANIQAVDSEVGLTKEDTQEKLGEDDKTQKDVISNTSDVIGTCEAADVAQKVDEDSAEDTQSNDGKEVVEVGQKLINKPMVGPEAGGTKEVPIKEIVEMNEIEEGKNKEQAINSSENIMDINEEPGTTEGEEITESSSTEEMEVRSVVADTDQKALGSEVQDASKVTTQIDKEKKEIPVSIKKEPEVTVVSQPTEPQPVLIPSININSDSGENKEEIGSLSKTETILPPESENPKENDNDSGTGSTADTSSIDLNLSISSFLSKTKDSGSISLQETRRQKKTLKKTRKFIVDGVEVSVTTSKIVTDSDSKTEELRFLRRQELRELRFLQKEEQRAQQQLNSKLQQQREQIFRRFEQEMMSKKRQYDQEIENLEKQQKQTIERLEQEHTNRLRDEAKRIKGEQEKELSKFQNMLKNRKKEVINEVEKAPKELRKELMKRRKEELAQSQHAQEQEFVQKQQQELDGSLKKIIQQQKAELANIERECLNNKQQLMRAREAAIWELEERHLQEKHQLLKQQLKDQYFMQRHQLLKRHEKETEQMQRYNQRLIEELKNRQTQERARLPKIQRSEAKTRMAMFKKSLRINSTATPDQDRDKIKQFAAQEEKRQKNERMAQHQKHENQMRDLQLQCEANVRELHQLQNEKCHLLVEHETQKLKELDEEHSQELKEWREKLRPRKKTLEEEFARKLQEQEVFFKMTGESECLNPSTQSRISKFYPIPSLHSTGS

[5] = target: Serine/threonine-protein kinase 26 (Homo sapiens, UniProt Q9P289); test: Selectivity interaction (ActivX KiNativ screen (kinase selectivity in THP-1 cell lysates)) EUB0000639a STK26; assay type: subcellular; conditions: lysate, at 1 µM
Serine/threonine-protein kinase 26, sequence (Q9P289 2-416 limits assumed): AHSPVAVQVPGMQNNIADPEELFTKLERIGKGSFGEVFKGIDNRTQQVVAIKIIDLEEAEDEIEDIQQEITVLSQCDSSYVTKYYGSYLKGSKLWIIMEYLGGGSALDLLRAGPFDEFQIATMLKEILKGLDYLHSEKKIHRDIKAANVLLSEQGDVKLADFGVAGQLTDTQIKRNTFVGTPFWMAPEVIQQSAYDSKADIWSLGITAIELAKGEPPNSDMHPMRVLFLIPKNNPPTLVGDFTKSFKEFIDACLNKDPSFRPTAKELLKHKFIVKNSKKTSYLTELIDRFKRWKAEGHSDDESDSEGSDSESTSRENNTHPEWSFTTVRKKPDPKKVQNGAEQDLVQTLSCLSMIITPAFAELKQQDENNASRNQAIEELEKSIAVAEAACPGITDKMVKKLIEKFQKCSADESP

[6] = target: T2, Tyrosine-protein kinase Mer (Homo sapiens) (UniProt Q12866); test: Selectivity interaction (ProQinase) EUB0000171b MERTK
T2 sequence (whole entry): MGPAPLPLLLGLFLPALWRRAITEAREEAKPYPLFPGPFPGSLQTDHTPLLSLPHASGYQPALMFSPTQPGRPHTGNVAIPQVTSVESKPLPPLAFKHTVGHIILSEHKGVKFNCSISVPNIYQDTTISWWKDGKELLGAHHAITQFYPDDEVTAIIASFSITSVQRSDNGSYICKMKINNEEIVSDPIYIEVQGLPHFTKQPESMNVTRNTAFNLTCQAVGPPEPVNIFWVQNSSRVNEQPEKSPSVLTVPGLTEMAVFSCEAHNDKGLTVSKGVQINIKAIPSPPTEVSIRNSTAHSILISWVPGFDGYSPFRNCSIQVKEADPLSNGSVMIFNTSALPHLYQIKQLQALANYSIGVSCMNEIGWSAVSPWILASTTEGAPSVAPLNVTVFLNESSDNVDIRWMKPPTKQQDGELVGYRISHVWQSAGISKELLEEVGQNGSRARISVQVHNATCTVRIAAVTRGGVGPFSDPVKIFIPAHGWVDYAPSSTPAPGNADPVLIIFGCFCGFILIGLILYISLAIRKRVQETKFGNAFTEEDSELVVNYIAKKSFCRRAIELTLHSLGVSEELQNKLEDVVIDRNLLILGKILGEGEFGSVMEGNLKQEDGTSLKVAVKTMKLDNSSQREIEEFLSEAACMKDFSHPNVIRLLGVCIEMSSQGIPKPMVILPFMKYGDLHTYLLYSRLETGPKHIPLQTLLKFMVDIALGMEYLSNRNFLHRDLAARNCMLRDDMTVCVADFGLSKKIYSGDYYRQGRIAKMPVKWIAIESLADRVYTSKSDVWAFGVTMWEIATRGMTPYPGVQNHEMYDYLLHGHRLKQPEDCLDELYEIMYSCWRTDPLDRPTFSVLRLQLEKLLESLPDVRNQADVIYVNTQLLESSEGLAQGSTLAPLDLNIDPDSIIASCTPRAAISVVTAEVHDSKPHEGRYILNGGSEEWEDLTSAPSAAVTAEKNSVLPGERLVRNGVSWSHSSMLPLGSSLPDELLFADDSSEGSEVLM

[7] = target: Myosin-IIIa (Homo sapiens) (UniProt Q8NEV4); test: Selectivity interaction (KinomeScan (DiscoverX)) EUB0000695a MYO3A; conditions: at 100 nM
[8] = target: LIM domain kinase 2 (Homo sapiens) (UniProt P53671); conditions: at 10 µM
[9] = tested on: Proto-oncogene tyrosine-protein kinase receptor Ret (Homo sapiens), P07949 [M918T]; test: (§1) Selectivity interaction (KinomeScan (DiscoverX)) EUB0000595a RET; conditions: at 10 µM
[10] = target: Proto-oncogene tyrosine-protein kinase receptor Ret (Homo sapiens, UniProt P07949); test: as §1; conditions: at 10 µM
[11] = tested on: Proto-oncogene tyrosine-protein kinase receptor Ret (Homo sapiens), P07949 [V804L]; test: as §1; conditions: at 10 µM
Insulin receptor = Insulin receptor (Homo sapiens, UniProt P06213); test: Selectivity interaction (Ambit KINOMEscan and KiNATiv profiling in Jurkat cells) EUB0000090b INSR; assay type: cell-based; conditions: at 1 µM
Insulin receptor, sequence (P06213 28-758 limits assumed): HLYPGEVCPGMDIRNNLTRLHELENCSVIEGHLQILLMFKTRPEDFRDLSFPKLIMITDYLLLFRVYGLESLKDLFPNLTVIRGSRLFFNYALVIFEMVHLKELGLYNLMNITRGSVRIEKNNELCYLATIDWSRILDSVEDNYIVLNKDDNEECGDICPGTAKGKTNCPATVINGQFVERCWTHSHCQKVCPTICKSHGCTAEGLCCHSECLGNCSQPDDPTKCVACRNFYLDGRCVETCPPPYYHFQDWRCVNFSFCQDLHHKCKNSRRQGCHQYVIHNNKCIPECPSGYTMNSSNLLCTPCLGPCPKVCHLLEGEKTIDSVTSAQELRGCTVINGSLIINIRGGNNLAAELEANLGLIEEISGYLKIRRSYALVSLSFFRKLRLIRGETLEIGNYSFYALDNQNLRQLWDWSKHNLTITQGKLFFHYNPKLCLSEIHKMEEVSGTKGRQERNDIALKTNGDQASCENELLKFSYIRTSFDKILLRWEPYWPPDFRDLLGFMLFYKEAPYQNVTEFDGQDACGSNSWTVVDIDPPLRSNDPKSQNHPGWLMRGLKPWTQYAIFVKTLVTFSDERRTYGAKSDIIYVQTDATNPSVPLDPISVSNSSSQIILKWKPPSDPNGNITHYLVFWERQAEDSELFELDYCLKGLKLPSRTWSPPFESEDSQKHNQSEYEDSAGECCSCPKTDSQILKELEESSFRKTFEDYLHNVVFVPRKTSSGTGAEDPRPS
Insulin receptor, sequence (P06213 763-1382 limits assumed): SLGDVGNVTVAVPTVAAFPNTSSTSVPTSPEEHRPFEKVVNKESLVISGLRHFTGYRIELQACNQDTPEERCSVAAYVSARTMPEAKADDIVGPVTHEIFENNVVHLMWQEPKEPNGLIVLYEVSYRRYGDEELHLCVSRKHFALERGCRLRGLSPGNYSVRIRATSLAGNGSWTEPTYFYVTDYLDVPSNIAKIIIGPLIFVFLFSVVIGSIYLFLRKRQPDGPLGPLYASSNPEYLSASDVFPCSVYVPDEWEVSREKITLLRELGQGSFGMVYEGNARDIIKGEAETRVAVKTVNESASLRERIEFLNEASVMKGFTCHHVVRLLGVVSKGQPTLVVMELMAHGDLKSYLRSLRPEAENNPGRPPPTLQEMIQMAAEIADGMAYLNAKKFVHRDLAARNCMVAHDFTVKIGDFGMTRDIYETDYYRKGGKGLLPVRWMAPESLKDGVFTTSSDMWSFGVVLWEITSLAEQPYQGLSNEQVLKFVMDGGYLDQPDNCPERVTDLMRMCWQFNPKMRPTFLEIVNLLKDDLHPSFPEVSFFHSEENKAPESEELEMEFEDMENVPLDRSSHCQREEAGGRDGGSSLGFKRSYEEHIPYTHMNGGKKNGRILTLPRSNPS

[12] = target: DNA (cytosine-5)-methyltransferase 3B (Homo sapiens) (UniProt Q9UBC3); test: Selectivity interaction (PWWP, WD40, and Tudor domain panel (DSLS measurements, literature)) EUB0000270b DNMT3B
[13] = target: Maternal embryonic leucine zipper kinase (Homo sapiens) (UniProt Q14680); test: Selectivity interaction (KinomeScan (DiscoverX)) EUB0000229b MELK; conditions: at 10 µM
Maternal embryonic leucine zipper kinase (Homo sapiens), sequence (Q14680 whole entry, looked up): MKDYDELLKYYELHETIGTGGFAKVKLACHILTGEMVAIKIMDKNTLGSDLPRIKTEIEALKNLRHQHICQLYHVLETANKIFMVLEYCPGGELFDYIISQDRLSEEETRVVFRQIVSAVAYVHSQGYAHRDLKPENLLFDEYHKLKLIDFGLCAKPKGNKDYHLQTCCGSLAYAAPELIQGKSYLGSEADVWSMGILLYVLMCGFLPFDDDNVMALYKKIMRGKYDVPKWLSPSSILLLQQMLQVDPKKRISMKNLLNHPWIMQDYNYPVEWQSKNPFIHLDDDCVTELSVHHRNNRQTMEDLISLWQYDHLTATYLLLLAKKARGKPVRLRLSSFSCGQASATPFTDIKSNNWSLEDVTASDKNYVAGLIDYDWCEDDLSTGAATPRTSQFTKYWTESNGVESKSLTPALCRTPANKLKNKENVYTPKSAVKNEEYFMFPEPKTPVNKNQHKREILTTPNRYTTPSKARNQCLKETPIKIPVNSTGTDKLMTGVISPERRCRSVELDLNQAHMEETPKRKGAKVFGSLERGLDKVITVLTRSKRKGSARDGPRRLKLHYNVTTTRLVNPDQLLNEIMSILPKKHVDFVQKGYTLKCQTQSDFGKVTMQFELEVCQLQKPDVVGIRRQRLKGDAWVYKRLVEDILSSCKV

[14] = target: SRSF protein kinase 3 (Homo sapiens) (UniProt Q9UPE1); conditions: at 10 µM
[15] = target: Cyclin-dependent kinase 4/cyclin D1 (Homo sapiens) (UniProt P11802+P24385); conditions: at 10 µM
[16] = tested on: Mast/stem cell growth factor receptor Kit (Homo sapiens), P10721 [D816H]; conditions: at 10 µM
Mast/stem cell growth factor receptor Kit (Homo sapiens), P10721 [D816H], sequence (P10721 whole entry D816H): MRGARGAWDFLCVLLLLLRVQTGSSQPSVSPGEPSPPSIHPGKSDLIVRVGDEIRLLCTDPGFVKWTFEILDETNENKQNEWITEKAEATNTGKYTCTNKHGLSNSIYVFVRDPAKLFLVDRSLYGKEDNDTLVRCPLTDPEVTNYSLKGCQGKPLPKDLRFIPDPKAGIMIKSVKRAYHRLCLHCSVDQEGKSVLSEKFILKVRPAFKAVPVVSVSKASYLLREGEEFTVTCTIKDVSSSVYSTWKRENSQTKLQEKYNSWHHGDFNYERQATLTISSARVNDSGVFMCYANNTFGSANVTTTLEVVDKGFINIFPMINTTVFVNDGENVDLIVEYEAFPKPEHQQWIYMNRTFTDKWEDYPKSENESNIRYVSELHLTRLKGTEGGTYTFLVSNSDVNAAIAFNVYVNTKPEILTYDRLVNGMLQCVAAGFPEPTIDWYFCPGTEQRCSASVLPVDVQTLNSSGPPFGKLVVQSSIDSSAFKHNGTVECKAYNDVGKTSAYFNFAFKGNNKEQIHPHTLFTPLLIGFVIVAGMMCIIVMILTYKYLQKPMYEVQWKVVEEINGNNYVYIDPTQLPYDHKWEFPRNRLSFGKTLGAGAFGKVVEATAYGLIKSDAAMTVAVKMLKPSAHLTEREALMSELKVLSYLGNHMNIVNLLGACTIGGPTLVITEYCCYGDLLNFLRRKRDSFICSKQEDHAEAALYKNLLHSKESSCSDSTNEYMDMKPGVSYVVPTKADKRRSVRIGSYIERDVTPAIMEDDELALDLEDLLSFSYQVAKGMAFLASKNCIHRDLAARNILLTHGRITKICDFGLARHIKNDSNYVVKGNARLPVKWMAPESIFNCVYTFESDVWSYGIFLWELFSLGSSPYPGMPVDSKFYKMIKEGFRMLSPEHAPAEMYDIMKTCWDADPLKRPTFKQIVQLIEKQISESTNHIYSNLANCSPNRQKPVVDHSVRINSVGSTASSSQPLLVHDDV

Beta-2 adrenergic receptor, sequence (P07550 whole entry): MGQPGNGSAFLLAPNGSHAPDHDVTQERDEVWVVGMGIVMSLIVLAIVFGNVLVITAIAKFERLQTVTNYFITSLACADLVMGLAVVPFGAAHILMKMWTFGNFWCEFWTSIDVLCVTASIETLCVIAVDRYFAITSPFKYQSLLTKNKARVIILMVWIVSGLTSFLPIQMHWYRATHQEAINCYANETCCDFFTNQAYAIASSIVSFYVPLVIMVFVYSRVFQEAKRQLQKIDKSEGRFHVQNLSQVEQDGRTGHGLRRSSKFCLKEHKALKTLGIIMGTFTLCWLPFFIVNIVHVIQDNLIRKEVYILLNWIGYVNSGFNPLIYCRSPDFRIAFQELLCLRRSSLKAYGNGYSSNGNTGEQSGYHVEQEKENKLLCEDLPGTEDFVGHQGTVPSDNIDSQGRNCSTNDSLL

## CCC(=O)N1CC[C@H](Nc2ncnc3c2CN(c2cnc(OC)c(C(F)(F)F)c2)CC3)C1 [LENIOLISIB]
[1]
  pIC50: < 4.52

## CNC(=O)Nc1ccc(-c2nc(N3CC4CCC(C3)O4)c3cnn(C4CCC5(CC4)OCCO5)c3n2)cc1
[2]
  % of control: 100%
[3]
  % of control: 90%

## CC[C@@H]1[C@H](F)C(=O)N[C@@H]1COc1nccc2cc(C(N)=O)c(OC)cc12 [ZIMLOVISERTIB]
[4]
  % of inhibition: -0.0851%
[5]
  % of inhibition: -9.2%

## C=CC(=O)Nc1cccc(C(=O)Nc2ccc(Nc3cc(-c4[nH]c(SC)nc4C)ccn3)cc2)c1
[6]; at 1 µM
  % of control: 76%
[6]; at 5 µM
  % of control: 41%

## Cc1cc(F)c(C(=O)Nc2cccc(-c3nncn3C(C)C)n2)cc1-n1cnc(C2CC2)c1
[7]
  % of control: 100%

## COCC(=O)NC/C=C/c1ccc2ncnc(Nc3ccc(Oc4ccc(C)nc4)c(C)c3)c2c1 [CP-724714]
[8]
  % of control: 100%
[9]
  % of control: 77%
[10]
  % of control: 87%
[11]
  % of control: 100%

## CN(C)C/C=C/C(=O)Nc1ccc(C(=O)N2CCCC(Nc3ncc(Cl)c(-c4c[nH]c5ccccc45)n3)C2)cc1 (stereo not drawn)
Insulin receptor
  % of control: 100%

## Cc1cc(CN)cc(C)c1-c1ncn(C)c1-c1cncn1C
[12]
  dTagg: 0 K

## COc1cc(N(C)c2ccnc3ccc(C(F)(F)F)cc23)cc(OC)c1OC
[13]
  % binding: 91%

## Cc1cc([C@@H](C)Nc2ccccc2C(=O)O)c2nc(N3CCOCC3)cc(=O)n2c1 [AZD-6482]
[14]
  % of control: 100%
[15]
  % of control: 100%
[16]
  % of control: 88%
